Data set [1] deals with neointimal proliferation of the carotid artery. In words: Atherosclerosis model in rat, balloon-induced angioplasty of carotid artery. Format: in vivo. As to the method: The operation was performed according to the references of Berger et al (Atherosclerosis 175:229-234, 2004) and Chen et al (Naunyn Schmiedebergs Arch Pharmacol 368:127-133, 2003). The animals were anesthetized with 2.5% isoflurane (mixed air and oxygen of 1:1) with a 2F probe balloon catheter. The catheter was pre-filled with saline solution and positioned from the external carotid artery of the right neck into the right common carotid artery. When the catheter entered about 1.5 cm of the right common carotid artery, the balloon was inflated and rubbed forward and backward three times. Then, the catheter was removed and the external carotid artery was ligated and the incision was sutured. […] The samples were observed under an optical microscopy and photoed. The thickness of neointimal proliferation was determined. The right side of each rat was taken as the experiment group and the left side was as the control group.
In the experiment group, the compound represented by formula 3 was administered.

Data set [2] concerns thermal hyperalgesia after sciatic nerve chronic constriction injury. In words: Neuropathic pain model, sciatic nerve chronic constriction injury, thermal hyperalgesia. It is filed as in vivo, rat. As to the method: The operation was performed according to the description of Wen et al, Brain Res 963:1-7, 2003. The dura mater of male Wistar rats was opened near the foramen magnum and planted with an 8.5-cm PE tube (outer diameter: 0.014 inches, inner diameter: 0.008 inches). The drugs worked near the lumbar, and the end of injection was fixed on the head. Animals those had deficient in motor or blood in the intrathecal catheter were abandoned.
The model was established similar to the sciatic nerve chronic constriction injury (CCI) established by Bennett and Xie (Pain 33:87-107, 1988). 4-O cat cut line was used to tie four nodes on the sciatic nerve. After one week, the behavior of thermal hyperalgesia was stimulated. The behavior of thermal hyperalgesia was assayed similar to the method established by Hargreaves et al (Pain 32:77-88, 1988) and recorded with an analgesiometer (IITC Inc., Woodland Hills, Calif., USA) for assessing the effect of the compound represented by formula 3 on neuropathic pain relief.
MPE(%)=(latency after drug administered−basal latency)/(30 seconds−basal latency)×100%
If a higher MPE was obtained, the effect of pain relief was better, and the maximum value of MPE was 100.

Data set [3] deals with cyclooxygenase-2. The experiment in a line: Protein expression of cyclooxygenase-2 in LPS-stimulated RAW 264.7 macrophages (Western blot). Format: cell-based, mouse. As to the method:
(§1) A mouse macrophage cell line, RAW 264.7, purchased from the American Type Culture Collection (ATCC , No TIB-71) was chosen in the in vitro model. The cells were cultured in DMEM (Dulcbecco/s Modified Eagle medium) containing 10% fetal bovine serum (FBS) and penicillin G (100 U/mL) and streptomycin (100 μg/mL) at 37° C. and 5% CO2. When reaching 80% confluence, the cells were subcultured with trypsin. The cells were subjected to an anti-inflammation assay after subcultured for 36 hours. 3×10^6 RAW264.7 cells were cultured in a 10-cm culture dish and administered with lipopolysaccharide (LPS, 0.01 μg/mL; Sigma L2654). After 16 hours, the cells were collected. […]
(§2) The collected RAW264.7 cells were dissolved with 200 μL of 4° C. lysis buffer (50 mM Tris [pH 7.5], 150 mM NaCl, 1% TritonX-100, 0.1 mM EDTA, 0.1 mM EGTA, 10 μg PMSF, 1 μg/mL aprotinin, 20 mM NaF, and 0.2 mM Na3VO4). […] The supernatant was assayed with Bio-Rad DC protein assay kit (Bio-Rad Laboratories, Hercules, Calif., USA) and the absorbance was read with an ELISA reader (Thermo Electron Corporation, USA) for estimating the protein contents. […] After washed with TTBS for three times, an enhanced chemiluminescence detection kit was used for reading with the PVDF membrane and exposed with an X-ray film (Kodak X-OMAT LS, Kodak, Rochester, N.Y., USA) for detecting the protein expression. […]
(Immunoblotting shows a protein as a band on a membrane.)

Data set [4] has as its system β-actin. The experiment in a line: Protein expression of β-actin (internal control) in LPS-stimulated RAW 264.7 macrophages. It is filed as cell-based, mouse. Conditions: 50 μM compound. As to the method: as §1, §2
In data set [5] the test system is inducible nitric oxide synthase. In words: Protein expression of inducible nitric oxide synthase in LPS-stimulated RAW 264.7 macrophages (Western blot). It is filed as cell-based, mouse. As to the method:
as §1, §2

For data set [6], the system named is multiple sclerosis (EAE). The experiment in a line: Multiple sclerosis (EAE) animal model, neural function score. Format: in vivo. As to the method: Female Lewis rats weighted between 280 to 300 g were used in the multiple sclerosis (MS, also called Encephalomyelitis; EAE) model (Boulerne et al, J Neurosci. 2002; 22:123-32, 2004). The animals were anesthetized with 2.5% isoflurane, and 50 μL of Complete Freund's Adjuvant (Sigma) containing 1 mg inactivated Mycobacterium tuberculosis H37Ra and 50 μg guinea pig myelin basic protein (MBP) was subcutaneous injected from the posterior paw for 100% immunizing In the control group, the rats were injected with Freund's complete adjuvant containing inactivated Mycobacterium tuberculosis H37Ra and without guinea pig myelin basic protein. The ill was observed on day 11 to 12 after immunization, and reached the peak on day 14 to 15.
The neural function was assessed on day 15. The scores represents: 0: no clinical symptom; 1: function loss in the tail; 2: partial paralysis in the posterior limbs; 3: complete paralysis in the posterior limbs; 4: paralysis in the four limbs; 5: complete paralysis in the whole body; 6: death (Liu et al. J Neuroimmunol. 2003; 139:27-35, 1998).
The rats were divided into four groups, and each group containing four animals: • Control group: Rats were subcutaneous injected from the posterior paw with Freund's complete adjuvant containing inactivated Mycobacterium tuberculosis H37Ra and without guinea pig myelin basic protein. 20 μL of normal saline was administered through the intrathecal catheter twice a day for five days from day 7. • Multiple sclerosis group: Rats were subcutaneous injected from the posterior paw with Freund's complete adjuvant containing inactivated Mycobacterium tuberculosis H37Ra and guinea pig myelin basic protein. 20 μL of normal saline was administered through the intrathecal catheter twice a day for five days from day 7. • Multiple sclerosis with treatment group: Rats were subcutaneous injected from the posterior paw with Freund's complete adjuvant containing inactivated Mycobacterium tuberculosis H37Ra and guinea pig myelin basic protein. […]

In the case of `CC(=O)CCS(=O)(=O)CCO` [formula 3], the “neointimal proliferation (preliminary result)” value in data set [1] (administered once a day) is on record as “significantly improved”. For the same compound, the “atherosclerosis, numeralized intima/media” value in data set [1] (hypodermic injection 3 mg/kg a day from day 10 to 24 after operation) is recorded as “improves atherosclerosis significantly”. In addition, in data set [1] (hypodermic injection 3 mg/kg a day from day 10 to 24 after operation, slices on day 24), the “neointimal proliferation stimulated by balloon-induced angioplasty” value is “improves the neointimal proliferation”. Also, the “50% effective dose (ED50) calculated from MPE” value in data set [2] (intrathecal injection, CCI rats, paw withdrawal latency) was 0.75 ± 0.05 µg. Also, the thermal hyperalgesia inhibition entry in data set [2] (intrathecal injections of 0.1, 0.5, 1, or 5 μg) is “significant effect on thermal hyperalgesia inhibition”. Besides, the “inhibition of cyclooxygenase-2 of macrophages” value in data set [3] (5 to 30 μM compound, LPS 0.01 μg/mL) is given as “significantly inhibits”. In addition, the IC50 in data set [3] (RAW 264.7 macrophages stimulated by LPS 0.01 μg/mL, 16 hours, protein expression) worked out at 32.1 ± 8.1 µM; in data set [5] (RAW 264.7 macrophages stimulated by LPS 0.01 μg/mL, 16 hours, protein expression, read-out: 50% inhibition concentration (IC50), inducible nitric oxide synthase), 3.64 ± 0.28 µM. The “effect on protein expression of β-actin” value in data set [4] is reported as “inhibits the protein expression of β-actin”. Besides, in data set [5] (10 to 30 μM compound, LPS 0.01 μg/mL), the “inhibition of inducible nitric oxide synthase of macrophages” value is “significantly inhibits”. In addition, in data set [6] (10 μg/20 μL intrathecal twice a day for five days from day 7, assessed on day 15, female Lewis rats), the “neural function score (0-6), multiple sclerosis with treatment group” value is recorded as 0.5±0.3. Moreover, the “progress of multiple sclerosis” value in data set [6] (administered through the intrathecal catheter) was “significantly represses the progress of multiple sclerosis”. Besides, the “neural function score (0-6), normal rats with treatment group” value in data set [6] (normal rats, 10 μg/20 μL intrathecal twice a day for five days from day 7) came out at 0.

These data come from patent US8722745B2, “Sulfur-containing compound, method of preparation and pharmaceutical uses thereof” (National Sun Yat-Sen University, priority 2007, dated 2014).
